According to PMC4789767, “Application of linker technique to trap transiently interacting protein complexes for structural studies” (Journal of Biological Methods, 2016):

Key:
CaM = experiment: ITC: binding of MBR (IQ motif) peptides to CaM; settings: VP-ITC, 25°C, 10 µM CaM in cell, 150 µM IQ peptide in syringe, Buffer A: 20 mM imidazole pH 8.0, 100 mM NaCl, 2 mM EGTA, in words, Fig. 3B vs 3A
Experimental: Different lengths of Nm and Ng IQ motif peptides were commercially synthesized and obtained from GL BiochemLtd (Shanghai, China). Stock solutions of 1 mM of Nm/Ng IQ peptides were prepared by dissolving the appropriate amount of peptide in 20 mM imidazole pH 8.0, 100 mM NaCl and 2 mM EGTA (Buffer A). After mixing, the peptide stock solutions were stored at 4°C to ensure complete peptide solubility. The choice of buffer is based on obtaining maximum solubility of the peptides. NOTE: Synthetically derived peptides should be verified for solubility when dissolved in a buffer of interest. Sometimes preparing high concentrations of peptide stock solution may result in precipitation. Lower concentrations of stock solutions can be prepared to avoid this problem.
• 1. ITC assay: Identification of MBR (minimum binding region) from Nm and Ng. • 1.1. Wildtype (WT) CaM, Nm and Ng are purified, as described previously. • 1.2. Prepare 10 µM of full length Nm/Ng and 150 µM of CaM in Buffer A (Recipes). The Schematic representation of the ITC experimental setup is depicted in Figure 2A. • 1.3. Degas all solutions for 10–20 min using a vacuum pump and centrifuge in order to avoid bubble formation in the sample cell during the experiment. • 1.4. […]

C-lobe of CaM = settings: previous findings; ref [34]-[36]; cited from earlier work
Excerpt: The Gly-linker strategy has been previously used to stabilize various protein complexes for structural studies. We have adopted this procedure to determine the crystal structure of CaM in complex with two of its intrinsically unstructured binding partners, Nm and Ng, and further validated the findings in vitro and in vivo [19]. We identified the MBR of Nm and Ng that interacted with CaM using ITC experiments using various peptide lengths of Nm/Ng. […] We employed known s ...

| Substance | binding with CaM compared with full length Nm (CaM) | interaction site on CaM (C-lobe of CaM) |
| --- | --- | --- |
| Minimum Binding Region (MBR) peptide of Nm: Optimized minimum binding region peptide (IQ motif) of Neuromodulin; commercially synthesized | mimics full length Nm in terms of binding with CaM |  |
| Ng: Full-length Neurogranin (accession no NP_071312), intrinsically disordered neuron-specific substrate protein |  | interacted with the C-lobe of CaM |
| Nm: Full-length Neuromodulin (accession no NP_032109), intrinsically disordered neuron-specific substrate protein |  | interacted with the C-lobe of CaM |
